Data set [1] has as its system intracellular L. donovani. Description: Intracellular L. donovani in THP-1 cells, dose-dilution high-content imaging assay. The class given is cell-based. The settings on record: for activity confirmation in dose-dilution assays: intracellular L. donovani EC50 / THP-1 CC50, result in words; for EC50: Leishmania donovani, THP-1 cells infected with L. donovani, 72 h, duplicate measurements, read-out: Intracellular L. donovani EC50 ± SD; for Selectivity Index (SI): SI = THP-1 CC50/Intracellular L. donovani EC50. The procedure:
(§1) PMA-treated THP-1 human monocytic cells were seeded at 0.8 × 10^4 cells per well in a 384-well culture plate (Greiner Bio-One, Kremsmünster, Austria) in RPMI-1640 complete medium supplemented with 10% FBS. After 48 h of incubation at 37 °C in the presence of 5% CO2, the promastigotes of L. donovani that were incubated with lectin for 30 min at 28 °C were added to the cells at a parasite to cell ratio of 20:1. […] The negative control consisted of THP-1 infected with the parasite with only 0.5% DMSO. After 72 h, the cells that were infected and treated with the drug were washed with serum-free RPMI-1640 medium. The cells and parasites were stained using 5 μM DRAQ5 and 4% PFA. The images were acquired based on reading using an Operetta® automated microscope (PerkinElmer, Inc., Waltham, MA 02451 USA). They were further analyzed using Columbus^TM (PerkinElmer, Inc. Waltham, MA, USA) software to quantify parasite numbers, host cell numbers, and infection ratios. In brief, large-sized nucleus of host cells was first detected using Draq-5 (Thermo Fisher, Rockford, IL, USA) signal and the host cell boundary masking was performed using the low-intensity signals from cytosols (additional feature of Draq-5). Then the small-sized nucleus signal by Draq-5 was used to identify parasites within the area of masked host cell. Infection ratio (IR) was determined with the value of the number of infected cells divided by total number of cells and the average number of parasites per macrophage (P/φ) was defined by the value of the number of parasites divided by the number of infected cells in the acquired image.
(§2) All of the half maximal effective concentrations (EC50) and the half maximal cytotoxic concentrations (CC50) values were calculated using two independent experiments. The dose-response curves were fitted using GraphPad Prism 6 software (GraphPad Software, San Diego, CA, USA) by using a sigmoidal dose-response equation with a variable hill slope option.

Data set [2] is described as follows: Host cell cytotoxicity (CC50) in infected THP-1 cells, dose-dilution assay. The class given is cell-based. The following applies: human, infected THP-1 host cells, read-out: THP-1 Cell CC50 ± SD. The procedure: as §1, §2
The subject of data set [3] is L. donovani promastigotes. Description: L. donovani promastigote growth inhibition (resazurin). The data set is classed as cell-based. The following applies: Leishmania donovani, 72 h, 3 days exposure, read-out: L. donovani Promastigote EC50 ± SD. The procedure: (§3) L. donovani promastigote and T. b. brucei Lister 427 BSF growth inhibition were assayed by measuring the conversion of resazurin to resorufin. The assays were performed in 384-well plates that were seeded with L. donovani promastigotes or T. brucei 427 BSF (5 × 10^4 cells per well). After seeding, the parasites were exposed to the compounds for 3 days. Resazurin sodium salt (200 μM; R7017; Sigma-Aldrich, St. Louis, MO, USA) was then added, and the samples were incubated for 5 h. After incubation, the parasites were fixed using 4% paraformaldehyde, and the plates were analyzed using a Victor3^TM plate reader (PerkinElmer, Inc., Waltham, MA, USA) at 590 nm (emission) and 530 nm (excitation). […] Pentamidine was used for the T. b. brucei Lister 427 BSF growth inhibition assay.
as §2

For data set [4], the system named is intracellular L. donovani. The experiment in a line: Pilot high-content screening against intracellular L. donovani at 10 μM. The data set is classed as cell-based. The following applies: screening concentration 10 µM. The protocol: as §1, with “image. The average IR value of the negative control wells was calculated as 0.53. Compounds selected based on the screening results were further assessed in a dose-dilution manner (two-fold serial dilution for 20 points starting from 100 μM) using the same method.” for “image.”

Another data set has as its system L. donovani. The experiment in a line: VL mouse model (L. donovani-infected BALB/c mice). The data set is classed as in vivo. The settings on record: miltefosine 30, Torin2 15, dactolisib 50, NVP-BGT226 5 mg/kg. The protocol:
The highest dose for each compound without showing adverse effects was selected based on literature search. The vehicle for the compounds was 5% N-methylpyrrolidone, 15% polyvinylpyrrolidone, and 80% deionized water. Drug dosing solutions were freshly prepared each day. All drugs were administered once daily for 5 days via the per os route. On day 16 post-infection, all animals were humanely euthanized and assessed microscopically using Giemsa-stained liver imprints. Parasite burdens were measured by counting (blinded to treatment) the number of amastigotes per 1000 cell nuclei and multiplying this number by the liver weight (mg) (Leishman-Donovan Unit: LDU). The LDU values for the drug-treated samples were compared to those of the untreated samples, and the percent inhibition values were calculated.

Data set [5] concerns T. b. brucei Lister 427 BSF. The experiment in a line: T. b. brucei Lister 427 bloodstream form growth inhibition (resazurin). The following applies: Trypanosoma brucei, 72 h, 3 days exposure, read-out: T. brucei Lister 427 BSF EC50 ± SD. The data set is classed as cell-based. The protocol: as §3, §2

Consider `CN1[C@@H]2CC[C@H]1CC(OC(c1ccccc1)c1ccc(Cl)cc1)C2` (stereo partly drawn) [3-CPMT], for which, in data set [1], the “activity confirmation in dose-dilution assays” value (“activity confirmation” below) is “either low activity (half maximal effective concentration, EC50) or high toxicity (CC50)”.

On to `C[C@@H]1[C@H](O)[C@@H](C)/C=C/C=C/C=C/C=C/C=C/C=C/C=C/[C@H](O[C@@H]2O[C@H](C)[C@@H](O)[C@H](N)[C@@H]2O)C[C@@H]2O[C@](O)(C[C@@H](O)C[C@@H](O)[C@H](O)CC[C@@H](O)C[C@@H](O)CC(=O)O[C@H]1C)C[C@H](O)[C@H]2C(=O)O` [Amphotericin B], for which, in data set [1], the EC50 was 0.34 ± 0.04 µM and the “Selectivity Index (SI)” value is >11.8. Also, the CC50 at 72 h in data set [2] is > 4 µM. Also, the EC50 in data set [3] worked out at 0.015 ± 0.003 µM.

For the compound `CC[C@H](Nc1ncnc2[nH]cnc12)c1nc2cccc(F)c2c(=O)n1-c1ccccc1` [CAL-101], the “inhibition of intracellular parasite survival in screening” value (“inhibition … in screening” for short) in data set [4] is “no direct effects on the parasite”.

Regarding `Cc1cc(Nc2cc(N3CCN(C)CC3)nc(/C=C/c3ccccc3)n2)n[nH]1` [ENMD-2076], the “activity confirmation” value in data set [1] is “either low activity (half maximal effective concentration, EC50) or high toxicity (CC50)”.

Turning to `Fc1ccc(C(OCCN2CCN(CCCc3ccccc3)CC2)c2ccc(F)cc2)cc1` [GBR12909], in data set [1], the “activity confirmation” value is “either low activity (half maximal effective concentration, EC50) or high toxicity (CC50)”.

Take `O=S(=O)(NCCNC/C=C/c1ccc(Br)cc1)c1cccc2cnccc12` [H89]: the “activity confirmation” value in data set [1] is “either low activity (half maximal effective concentration, EC50) or high toxicity (CC50)”.

`CCCCCCCCCCCCCCCCOP(=O)([O-])OCC[N+](C)(C)C` [Miltefosine]: in data set [1], the EC50 came to 4.81 ± 0.81 µM. In addition, the 50% cytotoxic concentration (CC50) at 72 h in data set [2] was > 40 µM. Besides, the “Inhibition of L. donovani In Vivo (%) (Mean ± SD)” value in the data set on L. donovani (liver parasite burden vs vehicle, per os 5 days) is 87 ± 2.13%. In addition, in the data set with L. donovani (once daily per os for 5 days from day 7 post-infection), the “LDU in the Liver (Mean ± SD)” value was 142 ± 24 LDU.

For `COc1ccccc1C1(O)CCN(CCCn2c3ccccc3c3ccccc32)CC1` [NNC05–2090], the “activity confirmation” value in data set [1] is given as “confirmed to be active”.

Regarding `CCn1nnc2c(N3CCOCC3)nc(-c3ccc(NC(=O)Nc4ccc(C(=O)N5CCN(C)CC5)cc4)cc3)nc21` [PKI-402], the EC50 turned out to be 13.4 ± 2.35 µM in data set [1], 0.49 ± 0.22 µM in data set [3] and 0.26 ± 0.02 µM in data set [5]. In addition, the “Selectivity Index (SI)” value in data set [1] is given as 2.1. Besides, in data set [2], the half-maximal cytotoxic concentration (CC50) at 72 h turned out to be 28.5 ± 1.2 µM.

As for `N=C(N)c1ccc(OCCCCCOc2ccc(C(=N)N)cc2)cc1` [Pentamidine], in data set [5], the EC50 was 0.15 ± 0.01 µM.

For `[O-][S+](c1ccccc1)c1ccc2nnnn2n1` (stereo not drawn) [Ro 106–9920], the “activity confirmation” value in data set [1] is “confirmed to be active”.

For `COc1ccc(CCCOC(Cn2ccnc2)c2ccc(OC)cc2)cc1` (stereo not drawn) [SKF 96365], the “activity confirmation” value in data set [1] is “confirmed to be active”.

As for `CC(C)n1nc(-c2ccc3oc(N)nc3c2)c2c(N)ncnc21` [Sapanisertib], the EC50 amounted to 6.39 ± 1.12 µM in data set [1], 7.46 ± 1.04 µM in data set [3] and 5.34 ± 0.98 µM in data set [5]. For the same compound, in data set [2], the cytotoxic concentration (CC50) at 72 h was > 100 µM.

On to `CNC(=O)Nc1ccc(-c2nc(N3CC4CCC(C3)O4)c3cnn(C4CCC5(CC4)OCCO5)c3n2)cc1` [WYE-125132], for which the EC50 in data set [1] was 2.26 ± 0.71 µM; in data set [3], 0.36 ± 0.04 µM; in data set [5] it was 0.12 ± 0.01 µM. Further, the “Selectivity Index (SI)” value in data set [1] came to 19. Further, the CC50 at 72 h in data set [2] was found to be 43.3 ± 2.7 µM.

For the compound `CC(C)c1ccc(C(=O)c2cccs2)c(SCCCCCCCCN(C)C)n1` [Y29794], the “activity confirmation” value in data set [1] is recorded as “confirmed to be active”.

With `CN(C)C/C=C/C(=O)Nc1cc2c(Nc3ccc(F)c(Cl)c3)ncnc2cc1O[C@H]1CCOC1` [afatinib], the “activity confirmation” value in data set [1] is listed as “either low activity (half maximal effective concentration, EC50) or high toxicity (CC50)”.

Take `COc1cc2c(Oc3ccc4[nH]c(C)cc4c3F)ncnc2cc1OCCCN1CCCC1` [cediranib]: the “activity confirmation” value in data set [1] is reported as “either low activity (half maximal effective concentration, EC50) or high toxicity (CC50)”.

`CO[C@H]1C[C@@H]2CC[C@@H](C)[C@@](O)(O2)C(=O)C(=O)N2CCCC[C@H]2C(=O)O[C@H]([C@H](C)C[C@@H]2CC[C@@H](OP(C)(C)=O)[C@H](OC)C2)CC(=O)[C@H](C)/C=C(\C)[C@@H](O)[C@@H](OC)C(=O)[C@H](C)C[C@H](C)/C=C/C=C/C=C/1C` [deforolimus]: the “inhibition … in screening” value in data set [4] is “did not show potent inhibition”.

For the compound `CO[C@H]1C[C@@H]2CC[C@@H](C)[C@@](O)(O2)C(=O)C(=O)N2CCCC[C@H]2C(=O)O[C@H]([C@H](C)C[C@@H]2CC[C@@H](OCCO)[C@H](OC)C2)CC(=O)[C@H](C)/C=C(\C)[C@@H](O)[C@@H](OC)C(=O)[C@H](C)C[C@H](C)/C=C/C=C/C=C/1C` [everolimus], the “inhibition … in screening” value in data set [4] is reported as “did not show potent inhibition”.

For `S=C=Nc1cccc(C2(N3CCCCC3)CCCCC2)c1` [metaphit], in data set [1], the “activity confirmation” value is reported as “confirmed to be active”.

With `CO[C@H]1C[C@@H]2CC[C@@H](C)[C@@](O)(O2)C(=O)C(=O)N2CCCC[C@H]2C(=O)O[C@H]([C@H](C)C[C@@H]2CC[C@@H](O)[C@H](OC)C2)CC(=O)[C@H](C)/C=C(\C)[C@@H](O)[C@@H](OC)C(=O)[C@H](C)C[C@H](C)/C=C/C=C/C=C/1C` [rapamycin], the “inhibition … in screening” value in data set [4] is “did not show potent inhibition”.

Turning to `CO[C@H]1C[C@@H]2CC[C@@H](C)[C@@](O)(O2)C(=O)C(=O)N2CCCC[C@H]2C(=O)O[C@H]([C@H](C)C[C@@H]2CC[C@@H](OC(=O)C(C)(CO)CO)[C@H](OC)C2)CC(=O)[C@H](C)/C=C(\C)[C@@H](O)[C@@H](OC)C(=O)[C@H](C)C[C@H](C)/C=C/C=C/C=C/1C` [temsirolimus], the “inhibition … in screening” value in data set [4] is “did not show potent inhibition”.

The record behind these values is article PMC7221892, “In Vitro and in Vivo Activity of mTOR Kinase and PI3K Inhibitors Against Leishmania donovani and Trypanosoma brucei” (Molecules, 2020).
